US20230000876A1, “TREATING CANCERS WITH A CYCLIN-DEPENDENT KINASE INHIBITOR” (Nuvation Bio Inc., priority 2021, published 2023)

Assays:
VCap prostate cancer = test: Non-castrated VCap prostate cancer model; format: in vivo, male CB17/Scid mice; conditions: Group 7: Abiraterone 350 mg/kg p.o. QD * 26 days
Method: Compound (I), enzalutamide, and abiraterone were tested in non-castrated VCap prostate cancer model in male CB17/Scid mice.
All treatment groups reduced mean tumor volume.

xMDA-MB-361 breast tumor = xMDA-MB-361 breast tumor model (ER-positive/HER2-positive); format: in vivo, female BALB/c nude mice; conditions: Group 3: Tucatinib 60 mg/kg PO QD*42 days
Method: Trastuzumab, tucatinib, Compound (I), and fulvestrant were tested in a xMDA-MB-361 breast tumor model (ER-positive/HER2-positive) on female BALB/c nude mice.

xBT474 breast tumor = xBT474 breast tumor model (ER-negative/HER2-positive); conditions: Group 3: Tucatinib 25 mg/kg PO QD*28 days

## C[C@]12CC[C@H](O)CC1=CC[C@@H]1[C@@H]2CC[C@]2(C)C(c3cccnc3)=CC[C@@H]12 [Abiraterone, abiraterone, reference compound]
VCap prostate cancer; Day 0
  Tumor volume (mean ± SEM): 171.7 ± 5.9 mm^3
VCap prostate cancer; Day 4
  Tumor volume (mean ± SEM): 278 ± 22.9 mm^3
VCap prostate cancer; Day 7
  Tumor volume (mean ± SEM): 365.9 ± 35.9 mm^3
VCap prostate cancer; Day 11
  Tumor volume (mean ± SEM): 582.6 ± 43.3 mm^3
VCap prostate cancer; Day 14
  Tumor volume (mean ± SEM): 762.2 ± 73.7 mm^3
VCap prostate cancer; Day 18
  Tumor volume (mean ± SEM): 985.6 ± 86.7 mm^3
VCap prostate cancer; Day 21
  Tumor volume (mean ± SEM): 1056.1 ± 83.2 mm^3
VCap prostate cancer; Day 25
  Tumor volume (mean ± SEM): 1184.9 ± 82.6 mm^3

## Cc1cc(Nc2ncnc3ccc(NC4=NC(C)(C)CO4)cc23)ccc1Oc1ccn2ncnc2c1 [Tucatinib]
xMDA-MB-361 breast tumor; Day 0
  Tumor volume (mean ± SEM): 157 ± 11 mm^3
xMDA-MB-361 breast tumor; Day 3
  Tumor volume (mean ± SEM): 148 ± 11 mm^3
xMDA-MB-361 breast tumor; Day 7
  Tumor volume (mean ± SEM): 156 ± 20 mm^3
xMDA-MB-361 breast tumor; Day 10
  Tumor volume (mean ± SEM): 219 ± 30 mm^3
xMDA-MB-361 breast tumor; Day 14
  Tumor volume (mean ± SEM): 408 ± 59 mm^3
xMDA-MB-361 breast tumor; Day 17
  Tumor volume (mean ± SEM): 658 ± 112 mm^3
xMDA-MB-361 breast tumor; Day 21
  Tumor volume (mean ± SEM): 970 ± 206 mm^3
xMDA-MB-361 breast tumor; Day 24
  Tumor volume (mean ± SEM): 1185 ± 222 mm^3
xMDA-MB-361 breast tumor; Day 28
  Tumor volume (mean ± SEM): 1496 ± 250 mm^3
xMDA-MB-361 breast tumor; Day 31
  Tumor volume (mean ± SEM): 1707 ± 309 mm^3
xMDA-MB-361 breast tumor; Day 35
  Tumor volume (mean ± SEM): 1580 ± 240 mm^3
xMDA-MB-361 breast tumor; Day 38
  Tumor volume (mean ± SEM): 1675 ± 283 mm^3
xMDA-MB-361 breast tumor; Day 42
  Tumor volume (mean ± SEM): 1670 ± 344 mm^3
xBT474 breast tumor; Day 0
  Tumor volume (mean ± SEM): 146 ± 10 mm^3
xBT474 breast tumor; Day 4
  Tumor volume (mean ± SEM): 177 ± 11 mm^3
xBT474 breast tumor; Day 7
  Tumor volume (mean ± SEM): 199 ± 19 mm^3
xBT474 breast tumor; Day 11
  Tumor volume (mean ± SEM): 168 ± 16 mm^3
xBT474 breast tumor; Day 14
  Tumor volume (mean ± SEM): 169 ± 15 mm^3
xBT474 breast tumor; Day 18
  Tumor volume (mean ± SEM): 234 ± 28 mm^3
xBT474 breast tumor; Day 21
  Tumor volume (mean ± SEM): 288 ± 35 mm^3
xBT474 breast tumor; Day 25
  Tumor volume (mean ± SEM): 341 ± 47 mm^3
xBT474 breast tumor; Day 28
  Tumor volume (mean ± SEM): 397 ± 68 mm^3
xBT474 breast tumor; Day 32
  Tumor volume (mean ± SEM): 406 ± 96 mm^3
xBT474 breast tumor; Day 35
  Tumor volume (mean ± SEM): 488 ± 112 mm^3
xBT474 breast tumor; Day 39
  Tumor volume (mean ± SEM): 420 ± 91 mm^3
xBT474 breast tumor; Day 42
  Tumor volume (mean ± SEM): 431 ± 89 mm^3
xBT474 breast tumor; Day 46
  Tumor volume (mean ± SEM): 421 ± 81 mm^3
